Our source for the logD values is the SangsterLogP compilation.

Usually logD stands for lipophilicity at a set pH, counting ionised and neutral species. A higher logD goes with higher lipophilicity.

One data set can be described thus: method code SF, from DOI: 10.1016/j.ejps.2012.10.019, PMID: 23131797. The settings on record: pH 2.0.
In turn, `O=C(OCc1c(F)cccc1Cl)c1cccc(S(=O)(=O)N2CCCC2)c1` yielded a logD of 4.22. `CC(=O)c1sc(SCCOc2ccccc2)nc1C` yielded a logD of 3.86. Same read-out and setting: next, `Cc1[nH]c2ccccc2c1C1=CN2CCS(=O)(=O)N=C2S1`: 1.56; `Cc1cccc(C)c1NC(=O)CNC(=O)C1CCN(S(=O)(=O)c2cccc(Cl)c2Cl)CC1`: 3.41; `CCN(C(=O)C(=O)c1cn(CC(=O)N2CCOCC2)c2ccccc12)c1ccccc1`: 2.05.

Still in this data set, the particulars now being: pH 5.0.
`CC(=O)NCCc1ccc(S(=O)(=O)N2CCOCC2)cc1`: the logD is 2. `CC(C)OCCCNC(=O)C(=O)NCc1ccc(C(C)C)cc1` returned a logD of 4.57. Regarding `O=C(NCCc1ccccc1)c1ccc(Cl)cc1`, the logD came to 3.71. As for `O=C(CSc1nc2ccccc2s1)c1cccs1`, the logD was determined as 4.04. Same read-out and setting: with `CCn1ccc(CN(C)C(=O)c2ccccc2COc2ccc(F)cc2F)n1` the figure was 4.43; with `N#Cc1nc2c(S(=O)(=O)c3ccccc3)c(N)n(Cc3ccc(F)cc3)c2nc1C#N`, 4.86; with `N#CCc1nc(-c2ccc3c(c2)OCCCO3)cs1`, 2.68.

Turning to `CCc1c(C#N)c(SCC(=O)N2CCc3cc(OC)c(OC)cc3C2)nc2c1C(=O)CC(C)(C)C2`, the logD was 4.89.

`CN(C)S(=O)(=O)c1ccc(C(=O)OC2CCCCC2)cc1` registered a logD of 4.27. Same read-out and setting: with `COc1ccc(N2C(=O)Cc3ccccc3C2=O)cc1` the figure was 2.56. As to `COC(=O)/C=C/CN1C(=O)c2ccccc2C1=O`, the logD turned out to be 2.46. `CCCCOc1ccc(C(=O)Oc2ccc3c(c2)OCO3)cc1OC` registered a logD of 4.77. The same measure, in the same setting: with `CC(Sc1nc2ccccc2c(=O)n1-c1ccc(F)cc1)C(=O)NCc1ccc2c(c1)OCO2` (stereo not given) the figure was 4.63; with `O=C(OCC(=O)N(C1CCCCC1)C1CCCCC1)c1ccc(Cl)nc1`, 4.99. Same read-out and setting: with `Cc1cc(=O)oc2cc(OC(C)C)ccc12` the figure was 3.33. The same measure, in the same setting: with `COc1ccc(C)cc1-n1nnnc1SCC(=O)Nc1cc(C(N)=O)cc(C(N)=O)c1` the figure was 4.15; with `CCOc1nc(C#N)nc(N2CCOCC2)n1`, 2.46.

On to `O=C(NC1CCCC1)C1c2ccccc2Oc2ccccc21`, for which the logD came out at 3.95. The same measure, in the same setting: with `COc1cccc(-c2cn3c4c(=O)n(C)c(=O)n(C)c4nc3n2-c2cccc(C)c2)c1` the figure was 4.16. On the same count and under the same terms, next, `CC1(C)OC(=O)C(=Cc2ccc([N+](=O)[O-])s2)C(=O)O1`: 3.04; `CC(NS(C)(=O)=O)c1ccccc1` (stereo not given): 1.8. Same read-out and setting: next, `Cc1ccc(NC(=O)c2ccc(S(=O)(=O)N3CCOCC3)cc2)c(C(=O)c2ccccc2)c1`: 4.54; `Cc1c(OCc2ccccc2)cccc1[N+](=O)[O-]`: 4.41; `COc1ccc(CNC(=O)C2CCCC2)cc1`: 2.6. In turn, `N#CCc1nc(-c2ccc3c(c2)OCCO3)cs1` yielded a logD of 2.92.

Regarding `Cc1ccc(S(=O)(=O)N(CCO)Cc2ccccc2)cc1`, the logD was 3.69. Regarding `CCOc1ccccc1OCC(=O)Nc1ccc2ccccc2c1`, the logD amounted to 4.73.

`COc1ccc(C(=O)OCC(=O)NC2CCCCCCC2)cc1[N+](=O)[O-]` came in with a logD of 4.28.

On to `c1ccc2c(c1)OCCOCCOCCO2`, for which the logD was 1.81.

In the case of `O=C(COc1ccc(C(F)(F)F)cc1[N+](=O)[O-])Nc1ccccc1Br`, the logD was 5.16. `CC1=CC(C(F)(F)F)(C(F)(F)F)C(C#N)=C(N)N1c1ccc(C(N)=O)cc1` yielded a logD of 4.41. On the same count and under the same terms, with `COC(=O)c1ccc(-n2c(C)cc(C(=O)COc3cccc(-n4cnnn4)c3)c2C)cc1` the figure was 4.77; with `Cc1sc2nc(SCC(=O)N3CCCC3)n(C3CCCCC3)c(=O)c2c1C`, 5.16. The same measure, in the same setting: next, `Cc1c(C(=O)Nc2ccc(S(=O)(=O)N3CCCCCC3)cc2)oc2ccc(F)cc12`: 5.68; `O=C1c2ccc(-c3ccc4c(c3)C(=O)N(CCO)C4=O)cc2C(=O)N1CCO`: 3.19. Still for that read-out and setting: with `O=C(Nc1ccccc1C(F)(F)F)C1CCC1` the figure was 2.55; with `COC(=O)c1cccc(NC(=O)CCN2C(=O)c3ccccc3C2=O)c1`, 3.39.

For `CCOC(=O)c1c(C)[nH]c(C)c1C(=O)COC(=O)c1ccc(F)c(S(=O)(=O)N2CCOCC2)c1`, the logD was found to be 3.63. Same read-out and setting: with `CCCCC(=O)Nc1ccc(F)c([N+](=O)[O-])c1` the figure was 3.04.

For `O=C1c2ccccc2C(=O)N1c1ccccc1C(F)(F)F`, the logD came to 3.55. Same read-out and setting: with `COc1ccc(C(=O)CSc2nnc(-c3ccccc3)o2)cc1` the figure was 4.15; with `CCOC(=O)c1ccc(NCc2c(C)[nH]c(C(=O)OCC)c2C)cc1`, 5.09; with `CCCC(=O)OCC(=O)Nc1ccc(F)cc1Cl`, 3.02. The same measure, in the same setting: with `O=C(c1c(F)cccc1F)N1CCCC1` the figure was 1.88; with `CCOc1cc(C#N)c(NC(=O)c2cc(S(=O)(=O)N3CCOCC3)c(Cl)cc2Cl)cc1OCC`, 4.31; with `O=C(OCC(=O)N1CCC(Cc2ccccc2)CC1)C1CCCCC1`, 4.98. Turning to `Cn1ncc(Cl)c1-c1nc(-c2nonc2N)no1`, the logD came to 2.77.

In the case of `CSc1sc(C(=O)N2CCOCC2)c2c1S(=O)(=O)N(C)c1ccccc1-2`, the logD is 3.11. Same read-out and setting: next, `CC(=O)Nc1cccc(C(=O)OCC(=O)c2c(N)n(C)c(=O)n(C)c2=O)c1`: 3.57; `CC1=CC(C)C(CO)(CO)C(C)C1` (stereo not given): 2.93. The same measure, in the same setting: next, `O=C(CSc1nnc(-c2cccs2)o1)NCCN1C(=O)CSC1=O`: 2.31.

The data set is the same for the next values; noted with them: pH 6.5.
Regarding `O=C(CSc1nc2ccccc2c(=O)n1-c1ccc(Cl)cc1)NC1CCCCC1`, the logD came to 4.92. The compound `COc1cc(C=O)ccc1OS(=O)(=O)c1ccc(F)c(F)c1` yielded a logD of 3.68. In turn, `N#CCOC(=O)c1ccccc1SCC(=O)N1CCCC1` had a logD of 2.57. Still for that read-out and setting: with `CC1CCC2(CC1)N=C(c1ccccc1)C(=O)N2CC(=O)Nc1ccc2c(c1)OCCO2` (stereo not given) the figure was 5.07. `O=C(Nc1ccc(N2CCN(C(=O)c3ccco3)CC2)c(Cl)c1)c1c(F)c(F)c(F)c(F)c1F` had a logD of 5.85. As for `Cc1c(C)c(C)c(CSc2nnc(CC#N)n2C)c(C)c1C`, the logD was 4.14. The compound `CCOc1ccc(CC(=O)C2=C(N3CCCC3)CCCC2=O)cc1OCC` displayed a logD of 3.3.

Take `COC(=O)c1c(NC(NC(=O)c2cccnc2)(C(F)(F)F)C(F)(F)F)sc2c1CCCCC2`: the logD is 5.75. Still for that read-out and setting: with `COc1ccc(-c2nnc(N)s2)cc1OC` the figure was 2.34.

Still in this data set, the particulars now being: pH 7.0.
Turning to `NNc1c(F)c(F)nc(F)c1F`, the logD came to 0.86.

Staying with this data set, now noted: pH 7.3.
For the compound `CCN1C(=O)c2cccc3c(S(=O)(=O)N(C(=O)c4cccnc4)c4ccc(OC)cc4)ccc1c23`, the logD was 4.74. Still for that read-out and setting: next, `COC(=O)c1sc(N)nc1C`: 1.48. On the same count and under the same terms, with `C=CCn1c(SCC(=O)Nc2ccc(C)c(F)c2)nnc1-c1cccs1` the figure was 4.48. The same measure, in the same setting: next, `Cc1nc(-c2ccc(Cl)cc2)cs1`: 3.65. Regarding `O=C(CSc1ncnc2sc3c(c12)CCC3)Nc1ccc(F)cc1`, the logD came out at 4.69. On the same count and under the same terms, with `CCc1ccccc1Nc1nc(N)nc(CSc2nnc(-c3ccc(OC(F)F)cc3)n2N)n1` the figure was 4.35; with `Nn1c(COc2ccccc2)nnc1SC(F)F`, 1.85.

In turn, `CC(Sc1nnc(-c2ccc(F)cc2)n1-c1ccccc1)C(N)=O` (stereo not given) yielded a logD of 3.38. Same read-out and setting: next, `O=C(Nc1cccc(-c2cnc3ccccc3n2)c1)c1cccs1`: 4.34.

Staying with this data set, now noted: pH 10.0.
As for `CN(C)S(=O)(=O)c1cccc(C(=O)NCCc2ccc(Cl)cc2Cl)c1`, the logD worked out at 4.48. Same read-out and setting: next, `Nc1ccccc1Nc1ccccc1`: 2.67; `O=C(c1ccc2c(c1)C(=O)N(c1nccs1)C2=O)c1ccc2c(c1)C(=O)N(c1nccs1)C2=O`: 3.25; `CCc1noc(-c2[nH]c3ccccc3c2C(=O)C(=O)N(C)C)c1C`: 2.68.

`CCCSc1nc2c(c(=O)n1-c1ccc(Br)cc1)SCC2` came in with a logD of 4.61.

`CC1(C)CC(=O)C2=C(C1)OC(N)=C(C#N)C21CCC2(CC1)OCCO2` registered a logD of 3.24. Still for that read-out and setting: next, `COc1ccc(C(=O)Cn2c(N3CCCCCC3)nc3c2c(=O)n(C)c(=O)n3C)cc1`: 4.42.

Compound `CCOC(=O)C1=C(C)NC(C)=C(C(=O)OC)C1c1ccco1` (stereo not given) returned a logD of 3.67. On the same count and under the same terms, with `Cc1cc(C(F)(F)F)n2nc(-c3nnc(-c4cccc(C(F)(F)F)c4)o3)cc2n1` the figure was 4.92; with `Nc1nc2nc3nc(N)sc3cc2s1`, 1.56.

The data set is the same for the next values; noted with them: pH 10.5.
For `CCn1c(SCc2ccccc2F)nc2sc(C)c(C)c2c1=O`, the logD came to 5.86. Still for that read-out and setting: with `Cc1ccccc1N1C(=O)c2ccc(C(=O)OCC(=O)c3c(N)n(C)c(=O)n(C)c3=O)cc2C1=O` the figure was 4.55; with `Nc1cccc2c1C(=O)N(C(=O)c1cc(-c3ccccc3Cl)nc3ccccc13)C2=O`, 4.63; with `CCc1ccc2nc3c(cc2c1)c(=O)n(-c1ccccc1)c1c3c(=O)n(C)c(=O)n1C`, 4.31. Same read-out and setting: next, `Cn1c(=O)c(C(=O)CN2CCSc3ccccc32)c(N)n(Cc2ccccc2)c1=O`: 4.71. As to `CCOC(=O)c1sc(NCCNc2nc(C)c(C(=O)OCC)s2)nc1C`, the logD is 4.66. The same measure, in the same setting: next, `Cc1nn(C)cc1-c1cc(C(F)(F)F)n2ncc(C(=O)N(C3CCCCC3)C3CCCCC3)c2n1`: 5.81; `Nc1nc(SCC(=O)N(CCO)CCO)nc2sc3c(c12)CCCC3`: 3.2; `CCOc1ccc(NC(=O)CN(C)C(=O)c2ccc(C)o2)cc1OCC`: 2.09. On the same count and under the same terms, next, `COc1ccc(-c2nnc(SCC(=O)c3c(N)n(C)c(=O)n(C)c3=O)n2-c2cccc(C(F)(F)F)c2)cc1`: 4.89; `CC(C)(C)c1cc(Cc2ccccc2)n[nH]1`: 4.35; `O=C(CSc1nnc(-c2ccccc2)n1-c1ccccc1)N1CCN(C(=O)c2ccccc2)CC1`: 4.64.

Turning to `Cc1ccc(-n2c(C)cc(=O)cc2C)cc1C`, the logD came out at 2.95. The same measure, in the same setting: with `CC(C)(C)c1cc(-c2nc(-c3ccc(C(F)(F)F)cn3)no2)n(Cc2ccccc2)n1` the figure was 6.58. On the same count and under the same terms, with `O=C(c1cc2ccccc2s1)N1CCCN(c2ccc(C(F)(F)F)cn2)CC1` the figure was 4.92.
